Values joined by “and” are separate entries in the source; they are usually repeats but may differ in a detail not shown here. Equal entries are not always repeated. Where two headings read alike, the source gives them in different places.
What was measured:
HIV-1 Protease = HIV-1 Protease (Human immunodeficiency virus type 1 group M subtype B (isolate HXB2) (HIV-1), UniProt P04585); assay: Enzymatic (FRET fluorometric) assay for determining the inhibition constant (Ki) of compounds targeting the HIV protease; type: biochemical; conditions: for IC50: read-out: IC50 ENZYME HIV-1 Protease
Source text: Enzymatic Assay for Determining the Inhibition Constant (Ki) of Synthetic Compounds Targeting the HIV Protease
This is a fluorometric assay based on the cleavage by protease of a substrate carrying a donor group (EDANS) and an acceptor group (DABCYL) on each side of the cleavage site, interacting together through fluorescence resonance energy transfer (FRET) as described by Matayoshi et al. (Science 247:[…], 1990).
After calculation of Vo and Vi, the inhibition constant (Ki) of the compound is determined using the equation of Henderson:
where Vo=the enzyme's initial velocity
Vi=the enzyme velocity in the presence of the inhibitory compound,
[I]=inhibitor concentration, [S]=substrate concentration,
Km=Michaelis-Menten constant and Kiapp=apparent Ki
Graphs are traced and the Ki determined using GraphPad Prism software v. 3.0.

HIV-1 viral strain NL4-3 = assay: Anti-viral assay in vitro (MTT, infected MT-4 cells, six days); type: cell-based; conditions: Human immunodeficiency virus 1, NL43, MT4, 144 h, read-out: ANTI-HIV-EC50 VIRAL STRAIN NL4-3
Description: Anti-Viral and Cytotoxicity Assays In Vitro
• To evaluate the EC50 of our compounds, various drug concentrations are incubated with the infected cell for six days and then the metabolic activity of the cells is monitored by the MTT assay. (See A. J. Japour et al., Antimicrobial Agents and Chemotherapy, 37, 1095-1101, 1993 and R. Pauwels et al. Journal of Virological Methods, 20, 309-321, 1988) • We use the laboratory viral strain NL4.3 as wild type virus and the cell line used is MT-4 which is a T-cell line highly sensitive to HIV-1. We also use some WT clinical strains. To address the resistance issue we assay the inhibitors with NL4.3 mutants which are designed to be resistant to specific commercially available inhibitors. • The same MTT assay is used to evaluate the CCIC50 (cell culture of IC50) of our compounds except that the virus is omitted.

[1] = calculated Ki, read-out: KI-CALC ENZYME HIV-1 Protease
[2] = KIGRAPHIC ENZYME HIV-1 Protease, Ki determined graphically, read-out: […] ENZYME HIV-1 Protease

SMILES	Ki (HIV-1 Protease; [1]) [nM]	Ki (HIV-1 Protease; [2])	IC50 (HIV-1 Protease)	EC50 (HIV-1 viral strain NL4-3) [nM]
COC(=O)N[C@@H](Cc1ccccc1Br)C(=O)NCCCC[C@@H](COP(=O)(O)O)N(CC(C)C)S(=O)(=O)c1ccc(N)cc1 [EX. 1, (1S,5S)-[1-{5-[(4-amino-benzenesulfonyl)-isobutyl-amino]-6-phosphonooxy-hexylcarbamoyl}-2-(2-bromo-phenyl)-ethyl]-carbamic acid methyl ester]	> 300			
CC(C)CN([C@H](CO)CCCCNC(=O)C(Cc1ccccc1Br)NC(=O)c1ccncc1)S(=O)(=O)c1ccc(N)cc1 (stereo partly drawn) [EX. 42]	< 3.8	0.182 nM	0.618 nM	40
Cc1cccnc1C(=O)N[C@@H](Cc1ccccc1Br)C(=O)NCCCC[C@@H](CO)N(CC(C)C)S(=O)(=O)c1ccc(N)cc1 [EX 36]	< 3.8	0.267 nM	0.503 nM	204
CC(=O)N[C@H](C(=O)NCCCC[C@@H](C(N)=O)N(CC(C)C)S(=O)(=O)c1ccc(N)cc1)C(c1ccccc1)c1ccccc1 [EX. 8]	< 3.8		1.07 nM	
Cc1c(O)cccc1C(=O)N[C@@H](Cc1ccccc1Br)C(=O)NCCCC[C@@H](CO)N(CC(C)C)S(=O)(=O)c1ccc(N)cc1 [EX 18]		0.26 nM	0.6 nM	136
COC(=O)N[C@@H](Cc1ccccc1Cl)C(=O)NCCCC[C@@H](COP(=O)(O)O)N(CC(C)C)S(=O)(=O)c1ccc(N)cc1 [EX 5, (1S,5S) [1-{5-[(4-amino-benzenesulfonyl)-isobutyl-amino]-6-phosphonooxy-hexylcarbamoyl}-2-(2-chloro-phenyl)-ethyl]-carbamic acid methyl ester]	91			
CC(C)CN([C@H](CO)CCCCNC(=O)[C@@H](NC(=O)N1CCOCC1)C(c1ccccc1)c1ccccc1)S(=O)(=O)c1ccc2c(c1)CCO2 [EX 34]	< 3.8	0.821 nM	0.963 nM	1000
CC(C)CN([C@H](CO)CCCCNC(=O)[C@H](Cc1ccc2ccccc2c1)NS(=O)(=O)c1ccc(C#N)cc1)S(=O)(=O)c1ccc(N)cc1 [EX 53]	37.4			
Cc1ccc(C(=O)N[C@@H](Cc2ccccc2Br)C(=O)NCCCC[C@@H](CO)N(CC(C)C)S(=O)(=O)c2ccc(N)cc2)cc1O [EX 37]	< 3.8	0.224 nM	0.683 nM	60
CC(C)CN([C@H](CO)CCCCNC(=O)[C@H](CC1=C(Br)CCC=C1)NC(=O)N1CCOCC1)S(=O)(=O)c1ccc2c(c1)OCCO2 [EX 31]	< 3.8		3.66 nM	980
COC(=O)N[C@H](C(=O)NCCCC[C@H](C(N)=O)N(CC(C)C)S(=O)(=O)c1ccc(N)cc1)C(c1ccccc1)c1ccccc1 [EX. 7]		0.049 nM and 0.042 nM	0.652 nM and 0.507 nM	30
COC(=O)N[C@H](C(=O)NCCCC[C@H](CO)N(CC(C)C)S(=O)(=O)c1cccc2cccnc12)C(c1ccccc1)c1ccccc1 [EX 27]	< 3.8		2.55 nM	369
COC(=O)N[C@@H](Cc1ccccc1F)C(=O)NCCCC[C@H](CO)N(CC(C)C)S(=O)(=O)c1ccc2c(c1)CCO2 [EX 13]	9.2			2140
CC(C)CN([C@H](CO)CCCCNC(=O)[C@H](Cc1ccc2ccccc2c1)NS(=O)(=O)c1cn(C)cn1)S(=O)(=O)c1ccc(N)cc1 [EX 54]	11.4			
Cc1ncccc1C(=O)N[C@@H](Cc1ccccc1Br)C(=O)NCCCC[C@@H](COP(=O)(O)O)N(CC(C)C)S(=O)(=O)c1ccc(N)cc1 [EX. 2, (2S,2S) phosphoric acid mono-(2-[(4-aminobenzenesulfonyl)-isobutyl-amino]-6-{3-(2-bromo-phenyl)-2-[(2-methyl-pyridine-3-carbonyl)-amino]-propionylamino}-hexyl)ester]	> 300			
Cc1ncccc1C(=O)N[C@@H](Cc1ccccc1Cl)C(=O)NCCCC[C@@H](CO)N(CC(C)C)S(=O)(=O)c1ccc(N)cc1 [EX 30]	< 3.8		2.15 nM	422
COC(=O)N[C@@H](Cc1ccc(Br)cc1)C(=O)NCCCC[C@@H](COP(=O)(O)O)N(CC(C)C)S(=O)(=O)c1ccc(N)cc1 [EX 6, (1S,5S) [1-{5-[(4-amino-benzenesulfonyl)-isobutyl-amino]-6-phosphonooxy-hexylcarbamoyl}-2-(4-bromo-phenyl)-ethyl]-carbamic acid methyl ester]	> 300			
CC(=O)N[C@H](C(=O)NCCCCC(C(N)=O)N(CC(C)C)S(=O)(=O)c1ccc(N)cc1)C(c1ccccc1)c1ccccc1 (stereo partly drawn) [EX. 8]				238
CC(C)CN([C@H](CO)CCCCNC(=O)[C@H](Cc1ccc2ccccc2c1)NCc1ccccn1)S(=O)(=O)c1ccc(N)cc1 [EX 56]			5.9 nM	> 50000
CC(C)CN([C@H](CO)CCCCNC(=O)[C@H](CC1CCCCC1)NC(=O)c1cccnc1)S(=O)(=O)c1ccc(N)cc1 [EX 25]	< 3.8		2.88 nM	> 5000
COC(=O)N[C@@H](CC1CCCCC1)C(=O)NCCCC[C@@H](CO)N(CC(C)C)S(=O)(=O)c1ccc(N)cc1 [EX 24]	5.3		5.21 nM	> 5000
Cc1ccc(C(=O)N[C@@H](CC2CCCCC2)C(=O)NCCCC[C@@H](CO)N(CC(C)C)S(=O)(=O)c2ccc(N)cc2)cn1 [EX 26]	< 3.8		3.31 nM	> 5000
Cc1ccc(C(=O)N[C@@H](Cc2ccccc2C)C(=O)NCCCC[C@@H](CO)N(CC(C)C)S(=O)(=O)c2ccc(N)cc2)cc1O [EX 63]	< 3.8		0.938 nM	165
COC(=O)N[C@H](C(=O)NCCCC[C@H](CO)N(CC(C)C)S(=O)(=O)c1ccc2c(c1)N(C)CCO2)C(c1ccccc1)c1ccccc1 [EX 35]	< 3.8		3.01 nM	> 50000
COC(=O)N[C@H](C(=O)NCCCC[C@@H](CO)N(Cc1cccnc1)S(=O)(=O)c1ccc(N)cc1)C(c1ccccc1)c1ccccc1 [EX. 33]	< 3.8		1.01 nM	196
Cc1nn(C)c(Cl)c1S(=O)(=O)N[C@@H](Cc1ccc2ccccc2c1)C(=O)NCCCC[C@@H](CO)N(CC(C)C)S(=O)(=O)c1ccc(N)cc1 [EX 51]	26.2			
CC(C)CN([C@H](CO)CCCCNC(=O)[C@H](Cc1ccccc1Br)NC(=O)c1cnccn1)S(=O)(=O)c1ccc(N)cc1 [EX. 44]		0.318 nM	0.471 nM	60
CC(C)CN([C@@H](CCCCNC(=O)[C@H](Cc1ccccc1Br)NC(=O)c1ccncc1)COP(=O)(O)O)S(=O)(=O)c1ccc(N)cc1 [EX 3, (2S,2S) phosphoric acid mono-(2-[(4-aminobenzenesulfonyl)-isobutyl-amino]-6-{3-(2-bromo-phenyl)-2-[(pyridine-4-carbonyl)-amino]-propionylamino}-hexyl)ester]	> 300			
CC(C)CN([C@H](CO)CCCCNC(=O)[C@@H](NC(=O)c1cccc(O)n1)C(c1ccccc1)c1ccccc1)S(=O)(=O)c1ccc2c(c1)OCO2 [EX 28]		0.47 nM		
COC(=O)N[C@@H](Cc1ccccc1F)C(=O)NCCCC[C@@H](COP(=O)(O)O)N(CC(C)C)S(=O)(=O)c1ccc(N)cc1 [EX 4, (1S,5S)-[1-{5-[(4-amino-benzenesulfonyl)-isobutyl-amino]-6-phosphonooxy-hexylcarbamoyl}-2-(2-fluoro-phenyl)-ethyl]-carbamic acid methyl ester]	> 300			
